Reference: patent US20260265694A1, “USE OF A VITISIN COMPOUND FOR THE PRODUCTION OF HEMATOPOIETIC CELLS” (ETABLISSEMENT FRANCAIS DU SANG, priority 2022, published 2026)

Key:
Type in all cases: cell-based, human
[1] = test system: CMP isolated from peripheral blood CD34+ cells; test: ERYTHRO 1 PROTOCOL on sorted CMP cells; details: CMPs, 10 μM
Procedure: (§1) b. Isolation of CMP and MEP Progenitors The CD34^+ cells previously isolated via an immunomagnetic technique were marked with anti-CD34-BV421 (1:100 000), anti-CD45RA-BB517 (1:100 000), anti-CD123-Alexa647 (1.5:100 000) antibodies (BD Pharmingen) and a cocktail of anti-LIN-PE antibodies (2:100 000) for 15 minutes. The LIN cocktail antibodies are directed against markers specific to mature cells (CD2, CD3, CD4, CD7, CD8, CD10, CD11b, CD14, CD19, CD20, CD56, CD235a). This LIN cocktail thus allows enrichment in “LIN^neg” immature cells by depletion of mature cells. After incubation with these antibodies, the cells are rinsed with a solution of PBS^+ (PBS+2% Fetal Calf Serum (FCS)) and centrifuged (430×g, 10 min. 4° C.). After resuspension of the cells in PBS^+, CMPs with the phenotype CD34^+LIN^negCD123^+CD45RA^neg and MEPs with the phenotype CD34^+LIN^negCD123^negCD45RA^neg are sorted and harvested using an ARIA cell sorter (Manz et al., 2002). c. Isolation of BFU-E and CFU-E Progenitors Placental blood CD34^+ cells, previously isolated by immunomagnetic sorting, are marked with antibodies specific to surface antigens allowing them to target and discriminate BFU-E primitive erythrocyte progenitors, namely anti-CD34, anti-GPA, anti CD123 and anti-CD36 antibodies. Primitive erythrocyte progenitors (BFU-Es) are defined by the following phenotype: CD34^+CD123^negCD36^negGPA^neg. […]

[2] = test system: peripheral blood CD34+ cells; test: ERYTHRO 1 PROTOCOL: simplified two-phase erythrocyte differentiation; details: versus CTRL, FIG. 3
Procedure: b. ERYTHRO 1 PROTOCOL: Simplified Ex Vivo Erythrocyte Differentiation Protocol (in Two Phases) This protocol was applied to CD34^+ cells from peripheral and placental blood, pre-stimulated SP cells, CMP cells and MEP cells. For this culture, the cell populations of interest are isolated as indicated previously and cultured in IMDM culture medium supplemented as follows: • 15% BIT 9500 (Stem Cell Technologies). […] The various cell populations were seeded in 24-well plates at 200 000 cells/mL for CD34^+, CMPs and MEPs. All of the cells recovered after the “Amplification/pre-stimulation” step for SP cells (i.e. 5000-50 000 cells) were cultured in 24-well plates. This culture includes two phases: • Phase 1: D0 to D6, EPO-free culture • Phase 2: from D6, addition of 2 IU/ML EPO and extension of culturing up to D21 minimum and D28 maximum.
In order to test the effect of vitisin B in this context, the culturing is performed in the absence and presence of vitisin B: • CTRL condition: Absence of vitisin B throughout the entire protocol. • Test condition: Presence of vitisin B at 5, 10, 15, 20 or 30 μM for the entire duration of the protocol (phase 1+phase 2). During the culture protocol, the differentiation product is analyzed by quantifying proliferation (counting) and analyzing erythrocyte differentiation markers by means of flow cytometry, using the markers CD71 and CD235a. c. ERYTHRO 2 PROTOCOL: Three-Phase Erythrocyte Differentiation Protocol
During and at the end of the various erythrocyte differentiation protocols, cell proliferation and cell differentiation are analyzed. Cell proliferation is evaluated by counting of cells on Malassez slides, with Trypan blue exclusion of dead cells. The different populations and culture conditions are also analyzed by flow cytometry, so as to observe the appearance of erythrocyte differentiation markers and thus cell differentiation kinetics. […] After resuspension of the cell pellets in PBS, the cells are analyzed by flow cytometry (FACSCantoll, Becton Dickinson, San Jose, CA). […]

[3] = test system: MEP isolated from peripheral blood CD34+ cells; test: ERYTHRO 1 PROTOCOL on sorted MEP cells; details: MEPs, 10 μM
Procedure: as §1

Oc1ccc(C2Oc3ccc(/C=C/c4cc(O)cc5c4[C@H](c4cc(O)cc(O)c4)[C@@H](c4ccc(O)cc4)O5)cc3C2c2cc(O)cc3c2C(c2cc(O)cc(O)c2)C(c2ccc(O)cc2)O3)cc1 (stereo in doubt) [vitisin B, 5-[(2R,2'S,3R,3'S)-5-[(1E)-2-[(2S,3S)-3-(3,5-Dihydroxyphenyl)-2,3-dihydro-6-hydroxy-2-(4-hydroxyphenyl)-4-benzofuranyl]ethenyl]-2,2′,3,3′-tetrahydro-6′-hydroxy-2,2′-bis(4-hydroxyphenyl)[3,4′-bibenzofuran]-3′-yl]-1,3-benzenediol]
erythrocyte differentiation (acquisition of the phenotype CD71+GPA+) ([1]; FIG. 4A): acceleration of erythrocyte differentiation
reduction relative to the control in CD71 membrane expression ([1]; as early as D7, FIG. 4B): up to 40%
CD71 expression ([2]; flow cytometry): more rapid decline
acquisition of CD235a (GPA) ([2]; flow cytometry): earlier acquisition
differentiation of CD34+ cells into erythrocyte precursors ([2]; vitisin B 5-30 μM for the entire protocol): faster and greater differentiation
erythrocyte differentiation (acquisition of the phenotype CD71+GPA+) ([3]; FIG. 4A): acceleration of erythrocyte differentiation
reduction relative to the control in CD71 membrane expression ([3]; as early as D7, FIG. 4B): up to 40%
